Measured values: the kinase profiling compilation of Christmann-Franck et al. (2016)
Where “and” joins values, the source holds several entries; their conditions need not be identical. Equal values may be shown once.

Experiments:
Experiment in all cases: KINOMEscan competition binding
Conditions in all cases: compound 1.0 µM
CDKL2 (human) = CDKL2 (human) (UniProt Q92772)
SBK1 (human) = SBK1 (human) (UniProt Q52WX2)
[1] = system: EGFR (human), P00533 [746-750 del]
STK33 (human) = STK33 (human) (UniProt Q9BYT3)
AURKC (human) = AURKC (human) (UniProt Q9UQB9)
ULK3 (human) = ULK3 (human) (UniProt Q6PHR2)
HIPK1 (human) = HIPK1 (human) (UniProt Q86Z02)
MAP4K3 (human) = MAP4K3 (human) (UniProt Q8IVH8)
MAP2K1 (human) = MAP2K1 (human) (UniProt Q02750)
PRKG2 (human) = PRKG2 (human) (UniProt Q13237)
TAOK1 (human) = TAOK1 (human) (UniProt Q7L7X3)
TBK1 (human) = TBK1 (human) (UniProt Q9UHD2)
CAMK2A (human) = CAMK2A (human) (UniProt Q9UQM7)
CAMKK2 (human) = CAMKK2 (human) (UniProt Q96RR4)
MAP3K6 (human) = MAP3K6 (human) (UniProt O95382)
CHEK2 (human) = CHEK2 (human) (UniProt O96017)
FGFR1 (human) = FGFR1 (human) (UniProt P11362)
RPS6KA3 KD1 (human) = RPS6KA3 KD1 (human) (UniProt P51812)
HUNK (human) = HUNK (human) (UniProt P57058)
PAK4 (human) = PAK4 (human) (UniProt O96013)
IRAK1 (human) = IRAK1 (human) (UniProt P51617)
[2] = system: KIT (human), P10721 [D816V]
CAMK1D (human) = CAMK1D (human) (UniProt Q8IU85)
TXK (human) = TXK (human) (UniProt P42681)
LCK (human) = LCK (human) (UniProt P06239)
DAPK3 (human) = DAPK3 (human) (UniProt O43293)
TGFBR1 (human) = TGFBR1 (human) (UniProt P36897)
MET (human) = MET (human) (UniProt P08581)
RPS6KA5 KD2 (human) = RPS6KA5 KD2 (human) (UniProt O75582)
PAK1 (human) = PAK1 (human) (UniProt Q13153)
ACVR2A (human) = ACVR2A (human) (UniProt P27037)
[3] = system: KIT (human), P10721 [V559D/V654A]
NUAK2 (human) = NUAK2 (human) (UniProt Q9H093)
ADCK3 (human) = ADCK3 (human) (UniProt Q8NI60)
[4] = system: EGFR (human), P00533 [G719C]
CDKL5 (human) = CDKL5 (human) (UniProt O76039)
TGFBR2 (human) = TGFBR2 (human) (UniProt P37173)
GRK4 (human) = GRK4 (human) (UniProt P32298)
RPS6KA4 KD2 (human) = RPS6KA4 KD2 (human) (UniProt O75676)
[5] = target: JAK3 JH1 catalytic (human) (UniProt P52333)

Chain of TAOK1 (human) (Q7L7X3 whole entry, looked up): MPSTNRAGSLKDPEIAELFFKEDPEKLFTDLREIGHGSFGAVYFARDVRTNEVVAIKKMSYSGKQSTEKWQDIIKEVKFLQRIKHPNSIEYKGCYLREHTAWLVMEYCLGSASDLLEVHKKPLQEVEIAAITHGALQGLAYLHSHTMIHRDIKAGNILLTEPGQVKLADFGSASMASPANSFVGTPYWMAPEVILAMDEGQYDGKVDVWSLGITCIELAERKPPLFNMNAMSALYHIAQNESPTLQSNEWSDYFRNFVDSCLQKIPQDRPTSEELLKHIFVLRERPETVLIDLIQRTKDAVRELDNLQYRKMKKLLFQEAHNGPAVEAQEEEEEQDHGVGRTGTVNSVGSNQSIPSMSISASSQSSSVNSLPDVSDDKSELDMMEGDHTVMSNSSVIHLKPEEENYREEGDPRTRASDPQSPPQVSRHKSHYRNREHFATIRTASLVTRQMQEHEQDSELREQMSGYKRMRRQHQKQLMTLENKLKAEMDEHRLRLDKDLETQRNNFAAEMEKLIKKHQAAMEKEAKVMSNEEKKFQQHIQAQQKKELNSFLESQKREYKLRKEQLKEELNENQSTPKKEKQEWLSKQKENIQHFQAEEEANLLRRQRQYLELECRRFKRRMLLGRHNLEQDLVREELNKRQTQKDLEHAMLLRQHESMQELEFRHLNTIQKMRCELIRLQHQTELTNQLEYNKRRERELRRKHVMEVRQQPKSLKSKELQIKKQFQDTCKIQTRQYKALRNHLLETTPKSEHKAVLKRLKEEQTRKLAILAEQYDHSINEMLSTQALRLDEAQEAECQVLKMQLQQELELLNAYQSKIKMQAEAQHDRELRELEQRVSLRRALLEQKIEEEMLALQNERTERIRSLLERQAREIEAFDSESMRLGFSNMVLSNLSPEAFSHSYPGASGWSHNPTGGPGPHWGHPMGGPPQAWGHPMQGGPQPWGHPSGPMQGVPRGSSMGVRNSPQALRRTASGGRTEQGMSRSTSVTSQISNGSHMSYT
Chain of STK33 (human) (Q9BYT3 whole entry, looked up): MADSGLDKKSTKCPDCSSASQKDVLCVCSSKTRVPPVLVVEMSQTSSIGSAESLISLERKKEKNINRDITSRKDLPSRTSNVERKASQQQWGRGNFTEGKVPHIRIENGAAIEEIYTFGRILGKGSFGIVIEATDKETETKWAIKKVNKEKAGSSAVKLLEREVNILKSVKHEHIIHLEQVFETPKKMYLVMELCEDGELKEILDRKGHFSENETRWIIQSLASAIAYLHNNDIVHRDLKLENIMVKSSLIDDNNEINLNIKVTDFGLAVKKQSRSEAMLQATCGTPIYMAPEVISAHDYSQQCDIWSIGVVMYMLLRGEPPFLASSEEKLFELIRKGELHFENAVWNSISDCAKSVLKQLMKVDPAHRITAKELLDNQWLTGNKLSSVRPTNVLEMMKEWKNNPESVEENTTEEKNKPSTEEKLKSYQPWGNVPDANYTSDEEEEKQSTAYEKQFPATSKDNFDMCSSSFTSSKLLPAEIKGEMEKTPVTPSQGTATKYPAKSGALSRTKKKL
Chain of RPS6KA4 KD2 (human) (O75676 whole entry, looked up): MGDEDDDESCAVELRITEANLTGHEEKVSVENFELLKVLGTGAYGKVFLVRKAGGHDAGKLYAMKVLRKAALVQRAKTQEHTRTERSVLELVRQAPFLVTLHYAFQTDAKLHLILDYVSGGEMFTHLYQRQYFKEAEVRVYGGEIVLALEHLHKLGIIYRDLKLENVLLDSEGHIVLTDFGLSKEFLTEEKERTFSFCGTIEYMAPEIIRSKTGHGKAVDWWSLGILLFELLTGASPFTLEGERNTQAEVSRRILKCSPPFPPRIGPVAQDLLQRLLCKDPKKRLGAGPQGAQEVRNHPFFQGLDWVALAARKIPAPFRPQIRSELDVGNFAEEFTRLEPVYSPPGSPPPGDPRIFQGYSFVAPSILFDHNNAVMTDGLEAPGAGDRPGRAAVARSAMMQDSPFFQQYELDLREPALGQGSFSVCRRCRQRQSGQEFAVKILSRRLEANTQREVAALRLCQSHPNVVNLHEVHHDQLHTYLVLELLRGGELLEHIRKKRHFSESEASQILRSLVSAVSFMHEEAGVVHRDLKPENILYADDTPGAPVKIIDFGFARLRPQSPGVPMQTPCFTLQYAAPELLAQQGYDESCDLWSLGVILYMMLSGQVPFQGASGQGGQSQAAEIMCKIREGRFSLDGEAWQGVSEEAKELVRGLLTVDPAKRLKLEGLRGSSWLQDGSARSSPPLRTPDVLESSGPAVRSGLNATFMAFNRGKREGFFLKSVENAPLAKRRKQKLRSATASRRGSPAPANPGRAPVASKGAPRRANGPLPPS
Chain of AURKC (human) (Q9UQB9 whole entry, looked up): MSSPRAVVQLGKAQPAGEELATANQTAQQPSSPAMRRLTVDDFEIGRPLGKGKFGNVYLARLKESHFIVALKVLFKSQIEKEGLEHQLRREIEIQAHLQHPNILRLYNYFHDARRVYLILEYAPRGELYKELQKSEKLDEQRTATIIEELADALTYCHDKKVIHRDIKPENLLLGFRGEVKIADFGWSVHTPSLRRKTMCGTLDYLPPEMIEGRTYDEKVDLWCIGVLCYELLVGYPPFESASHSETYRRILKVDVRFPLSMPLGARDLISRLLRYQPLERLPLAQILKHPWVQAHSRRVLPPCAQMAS
Chain of MAP3K6 (human) (O95382 whole entry, looked up): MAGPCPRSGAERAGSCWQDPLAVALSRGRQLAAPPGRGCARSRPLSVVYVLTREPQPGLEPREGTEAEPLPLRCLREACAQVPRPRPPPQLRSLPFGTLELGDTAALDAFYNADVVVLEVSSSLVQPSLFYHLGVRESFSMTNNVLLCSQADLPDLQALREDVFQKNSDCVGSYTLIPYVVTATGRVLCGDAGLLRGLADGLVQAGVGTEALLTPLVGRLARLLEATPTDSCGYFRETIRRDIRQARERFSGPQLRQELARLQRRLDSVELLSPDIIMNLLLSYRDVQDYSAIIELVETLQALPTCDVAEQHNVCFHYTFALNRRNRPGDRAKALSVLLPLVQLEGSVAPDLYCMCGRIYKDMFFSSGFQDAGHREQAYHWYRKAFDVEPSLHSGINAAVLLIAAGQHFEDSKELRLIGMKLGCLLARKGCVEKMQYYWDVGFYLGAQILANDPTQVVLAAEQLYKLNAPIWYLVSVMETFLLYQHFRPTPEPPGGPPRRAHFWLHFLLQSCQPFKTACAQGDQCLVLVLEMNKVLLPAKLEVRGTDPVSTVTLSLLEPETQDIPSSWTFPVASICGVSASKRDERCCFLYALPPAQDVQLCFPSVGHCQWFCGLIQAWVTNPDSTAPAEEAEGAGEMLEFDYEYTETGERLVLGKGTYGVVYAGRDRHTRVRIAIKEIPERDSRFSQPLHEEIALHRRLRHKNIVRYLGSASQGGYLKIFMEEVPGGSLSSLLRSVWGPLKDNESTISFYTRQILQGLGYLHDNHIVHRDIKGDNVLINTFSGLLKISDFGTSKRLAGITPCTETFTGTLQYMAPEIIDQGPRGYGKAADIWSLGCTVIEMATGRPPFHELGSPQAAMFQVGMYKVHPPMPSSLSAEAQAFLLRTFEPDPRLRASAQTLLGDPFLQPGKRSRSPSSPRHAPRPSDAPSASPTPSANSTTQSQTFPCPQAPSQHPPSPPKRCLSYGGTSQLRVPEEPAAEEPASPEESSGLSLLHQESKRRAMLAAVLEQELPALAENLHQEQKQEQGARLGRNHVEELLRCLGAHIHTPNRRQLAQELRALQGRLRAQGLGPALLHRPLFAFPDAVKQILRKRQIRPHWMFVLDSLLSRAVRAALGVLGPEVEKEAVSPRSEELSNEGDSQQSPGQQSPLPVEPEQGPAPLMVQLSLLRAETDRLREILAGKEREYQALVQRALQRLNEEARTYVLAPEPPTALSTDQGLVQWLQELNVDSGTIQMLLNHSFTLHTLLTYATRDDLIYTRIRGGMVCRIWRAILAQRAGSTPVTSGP
Chain of PRKG2 (human) (Q13237 whole entry, looked up): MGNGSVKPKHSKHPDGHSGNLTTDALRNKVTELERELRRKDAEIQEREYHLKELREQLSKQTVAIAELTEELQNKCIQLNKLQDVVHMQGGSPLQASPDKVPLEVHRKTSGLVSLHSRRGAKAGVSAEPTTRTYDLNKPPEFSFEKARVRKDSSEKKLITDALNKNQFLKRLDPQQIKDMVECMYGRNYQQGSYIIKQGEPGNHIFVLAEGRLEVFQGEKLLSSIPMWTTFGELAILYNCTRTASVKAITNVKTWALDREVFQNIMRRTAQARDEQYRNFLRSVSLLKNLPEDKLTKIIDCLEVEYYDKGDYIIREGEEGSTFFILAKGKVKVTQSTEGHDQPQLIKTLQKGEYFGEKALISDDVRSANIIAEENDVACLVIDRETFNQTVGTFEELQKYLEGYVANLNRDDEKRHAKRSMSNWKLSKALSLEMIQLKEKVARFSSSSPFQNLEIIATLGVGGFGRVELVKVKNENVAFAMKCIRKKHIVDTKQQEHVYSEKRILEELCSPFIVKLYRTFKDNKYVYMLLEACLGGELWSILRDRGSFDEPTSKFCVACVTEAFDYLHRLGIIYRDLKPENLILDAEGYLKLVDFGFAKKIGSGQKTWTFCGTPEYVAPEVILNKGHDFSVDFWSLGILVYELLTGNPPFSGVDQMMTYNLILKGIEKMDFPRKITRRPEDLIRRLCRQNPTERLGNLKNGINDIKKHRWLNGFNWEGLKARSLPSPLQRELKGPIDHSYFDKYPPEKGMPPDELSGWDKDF
Chain of SBK1 (human) (Q52WX2 whole entry, looked up): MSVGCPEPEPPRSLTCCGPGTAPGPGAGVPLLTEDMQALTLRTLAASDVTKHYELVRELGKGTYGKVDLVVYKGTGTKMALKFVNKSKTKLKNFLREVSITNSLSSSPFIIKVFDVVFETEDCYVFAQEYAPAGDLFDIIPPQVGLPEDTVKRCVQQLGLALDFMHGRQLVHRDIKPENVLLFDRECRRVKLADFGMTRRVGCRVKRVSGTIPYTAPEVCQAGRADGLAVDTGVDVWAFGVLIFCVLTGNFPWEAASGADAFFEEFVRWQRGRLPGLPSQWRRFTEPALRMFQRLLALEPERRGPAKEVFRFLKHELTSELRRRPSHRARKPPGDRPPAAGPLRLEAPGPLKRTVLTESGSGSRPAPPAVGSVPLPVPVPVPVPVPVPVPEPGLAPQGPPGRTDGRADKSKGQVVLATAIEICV

- inhibition of binding (CDKL2 (human)): 0%
- inhibition of binding (SBK1 (human)): 17%
- inhibition of binding [1]: 0%
- inhibition of binding (STK33 (human)): 0%
- inhibition of binding (AURKC (human)): 0%
- inhibition of binding (ULK3 (human)): 17%
- inhibition of binding (HIPK1 (human)): 0%
- inhibition of binding (MAP4K3 (human)): 0%
- inhibition of binding (MAP2K1 (human)): 0%
- inhibition of binding (PRKG2 (human)): 0%
- inhibition of binding (TAOK1 (human)): 0% and 2%
- inhibition of binding (TBK1 (human)): 0%
- inhibition of binding (CAMK2A (human)): 2%
- inhibition of binding (CAMKK2 (human)): 0%
- inhibition of binding (MAP3K6 (human)): 0%
- inhibition of binding (CHEK2 (human)): 0%
- inhibition of binding (FGFR1 (human)): 0%
- inhibition of binding (RPS6KA3 KD1 (human)): 0%
- inhibition of binding (HUNK (human)): 18%
- inhibition of binding (PAK4 (human)): 13%
- inhibition of binding (IRAK1 (human)): 12%
- inhibition of binding [2]: 3%
- inhibition of binding (CAMK1D (human)): 0%
- inhibition of binding (TXK (human)): 0%
- inhibition of binding (LCK (human)): 0%
- inhibition of binding (DAPK3 (human)): 10%
- inhibition of binding (TGFBR1 (human)): 4%
- inhibition of binding (MET (human)): 12%
- inhibition of binding (RPS6KA5 KD2 (human)): 50%
- inhibition of binding (PAK1 (human)): 4%
- inhibition of binding (ACVR2A (human)): 5%
- inhibition of binding [3]: 0%
- inhibition of binding (NUAK2 (human)): 0%
- inhibition of binding (ADCK3 (human)): 4%
- inhibition of binding [4]: 4%
- inhibition of binding (CDKL5 (human)): 50%
- inhibition of binding (TGFBR2 (human)): 24%
- inhibition of binding (GRK4 (human)): 0%
- inhibition of binding (RPS6KA4 KD2 (human)): 0%
- inhibition of binding [5]: 100%
SMILES: Nc1cc(C(F)(F)F)c(-c2cc(N3CCOCC3)nc(N3CCOCC3)n2)cn1
